Reference: US9115380B2, “Kits and methods for generating 5′ capped RNA” (priority 2006, dated 2015)
Read-outs that look alike come from different tables or passages of the source.

Experiments:
[1] = test system: tobacco acid pyrophosphatase (TAP); type: biochemical; conditions: capped RNA prepared per Method 6
wheat germ lysate = type: biochemical; conditions: wheat germ lysate, poly(A)-tailed Renilla luciferase RNA
[2] = test system: rabbit reticulocyte lysate; type: biochemical; conditions: rabbit reticulocyte lysate
vaccinia capping enzyme = vaccinia capping enzyme (Vaccinia virus, UniProt P04298); type: biochemical
[3] = target: vaccinia mRNA (nucleoside-2′-O—) methyltransferase (Vaccinia virus, UniProt P07617); type: biochemical
[4] = target: RNA guanyltransferase activity of the vaccinia capping enzyme system (Vaccinia virus, UniProt P04298); conditions: permeabilized vaccinia virions; cited from earlier work

Nc1nc2c(ncn2[C@H]2C[C@H](O)[C@@H](COP(=O)(O)OP(=O)(O)OP(=O)(O)O)O2)c(=O)[nH]1 [2′-dGTP, 2′-deoxyguanosine-5′-triphosphate]
removal of the cap nucleotide by tobacco acid pyrophosphatase (51-base band on PAGE) [1]: 51-base band was observed | relative translation efficiency (wheat germ lysate; cap 0 structure, GTP-capped cap 0 RNA = 100%): 54% | relative translation efficiency (wheat germ lysate; cap I structure): 54% | average relative translation efficiency ([2]; poly(A)-tailed Renilla luciferase RNA, cap 0 structure, GTP-capped cap 0 RNA = 100%): 118% | average relative translation efficiency ([2]; poly(A)-tailed Renilla luciferase RNA, cap I structure): 84% | average relative translation efficiency ([2]; poly(A)-tailed firefly luciferase RNA, cap I structure): 128% | conversion of 51-base primary RNA transcript to 52-base capped RNA (in words) (vaccinia capping enzyme): quantitatively converted | methylation of the 2′-hydroxyl of the 5′-penultimate nucleotide by mRNA (nucleoside-2′-O—) methyltransferase [3]: 52-base radioactive band was observed | activity relative to GTP in [^32P]-PPi exchange assay [4]: approximately 6%
